Measured values: the supplement of paper PMC9013687
± gives the standard deviation of the averaged measurements.

How the values were obtained:
Danio rerio embryo [1] = assay: EC50 Yolk sac size_Increase; details: exposure time: 4 dpf
Experimental: (§1)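 Zebrafish embryos (UFZ-OBI strain) were exposed from 2 hpf for 48 h (2 dpf) or 96 h (4 dpf) at 28 °C; spontaneous tail coiling was scored at 25 hpf. Morphological features from automated image analysis (FishInspector), heart rate and locomotor response were fitted with drc models. Quantal endpoints were dichotomised at 2.5 SD from controls and fitted with a log-logistic model; heart rate, pigmentation and STC were normalised to the replicate control mean. Betamethasone was tested as betamethasone dipropionate, diflorasone as diflorasone diacetate.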

Danio rerio embryo [2] = assay: EC10 Pigmentation increase; higher = less potent; details: exposure time: 4 dpf
Experimental: as §1

Danio rerio embryo [3] = assay: EC20 Curvature_Increase; higher = less potent; details: exposure time: 2 dpf
Experimental: as §1

Danio rerio embryo [4] = assay: EC10 LMR dark; higher = less potent; details: exposure time: 4 dpf
Experimental: as §1

Danio rerio embryo [5] = assay: EC50 Pericard size_Increase; details: exposure time: 2 dpf
Experimental: as §1

Danio rerio embryo [6] = assay: EC10 Pericard size_Increase; higher = less potent; details: exposure time: 2 dpf
Experimental: as §1

Danio rerio embryo [7] = assay: EC10 Body length_Decrease; higher = less potent
Experimental: as §1

Danio rerio embryo [8] = assay: EC20 Body length_Decrease; higher = less potent
Experimental: as §1

Danio rerio embryo [9] = assay: EC20 Any effect; higher = less potent
Experimental: as §1

Danio rerio embryo [10] = assay: EC50 Body length_Decrease
Experimental: as §1

Danio rerio embryo [11] = assay: EC10 Any effect; higher = less potent
Experimental: as §1

Danio rerio embryo [12] = assay: EC20 Heart rate; higher = less potent
Experimental: as §1

Danio rerio embryo [13] = test system: Danio rerio embryo
Experimental: as §1

Danio rerio embryo [14] = assay: EC20 Eye size_Decrease; higher = less potent; details: exposure time: 2 dpf
Experimental: as §1

Danio rerio embryo [15] = assay: EC20 LMR dark; higher = less potent; details: exposure time: 4 dpf
Experimental: as §1

Danio rerio embryo [16] = assay: EC20 Pericard size_Increase; higher = less potent; details: exposure time: 2 dpf
Experimental: as §1

Danio rerio embryo [17] = assay: EC20 Bladder size_Decrease; higher = less potent; details: exposure time: 4 dpf
Experimental: as §1

Danio rerio embryo [18] = assay: EC10 Curvature_Increase; higher = less potent; details: exposure time: 2 dpf
Experimental: as §1

Danio rerio embryo [19] = details: exposure time: 4 dpf
Experimental: as §1

Danio rerio embryo [20] = assay: EC50 Bladder size_Decrease; details: exposure time: 4 dpf
Experimental: as §1

Danio rerio embryo [21] = assay: EC10 Heart rate; higher = less potent
Experimental: as §1

Danio rerio embryo [22] = assay: EC50 Eye size_Decrease; details: exposure time: 2 dpf
Experimental: as §1

Danio rerio embryo [23] = assay: spontaneous tail coiling frequency (coils/min/embryo); higher = more spontaneous movement; details: 25 hpf
Experimental: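 Spontaneous tail coilings of zebrafish embryos exposed from 2 hpf were recorded at 24-25 hpf in 1-min videos and detected by a KNIME workflow from grey-value variance. Betamethasone was tested as the dipropionate, diflorasone as the diacetate.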

Danio rerio embryo [24] = assay: EC50 Curvature_Increase; details: exposure time: 2 dpf
Experimental: as §1

Danio rerio embryo [25] = assay: EC20 Pigmentation increase; higher = less potent; details: exposure time: 4 dpf
Experimental: as §1

Danio rerio embryo [26] = assay: EC20 Yolk sac size_Increase; higher = less potent; details: exposure time: 4 dpf
Experimental: as §1

Danio rerio embryo [27] = details: exposure time: 4 dpf; remark: listed apart in the source
Experimental: as §1

Danio rerio embryo [28] = test system: Danio rerio embryo; remark: listed apart in the source
Experimental: as §1

Danio rerio embryo [29] = assay: EC10 Eye size_Decrease; higher = less potent; details: exposure time: 2 dpf
Experimental: as §1

Danio rerio embryo [30] = assay: EC20 Eye-jaw distance_Decrease; higher = less potent; details: exposure time: 4 dpf
Experimental: as §1

Danio rerio embryo [31] = assay: EC10 Bladder size_Decrease; higher = less potent; details: exposure time: 4 dpf
Experimental: as §1

Danio rerio embryo [32] = assay: EC50 Eye-jaw distance_Decrease; details: exposure time: 4 dpf
Experimental: as §1

Danio rerio embryo [33] = assay: EC10 Lack of SB; higher = less potent; details: exposure time: 4 dpf
Experimental: as §1

Danio rerio embryo [34] = assay: EC10 Eye-jaw distance_Decrease; higher = less potent; details: exposure time: 4 dpf
Experimental: as §1

Danio rerio embryo [35] = assay: EC10 Yolk sac size_Increase; higher = less potent; details: exposure time: 4 dpf
Experimental: as §1

Danio rerio embryo [36] = assay: EC20 Lack of SB; higher = less potent; details: exposure time: 4 dpf
Experimental: as §1

**Q.** `CC1(C)OC(=O)C(OCC2CC2)=C1c1ccc(S(C)(=O)=O)cc1` [Firocoxib] was tested. Which “EC50 Yolk sac size Increase” value (Danio rerio embryo [1]) did it give?
**A.** 128 µM

**Q.** And the “EC10 Pigmentation increase” value (Danio rerio embryo [2])?
**A.** 83 µM

**Q.** What about the “EC20 Curvature Increase” value (Danio rerio embryo [3]) of the same compound?
**A.** 85.4 µM

**Q.** And the “EC10 LMR dark” value (Danio rerio embryo [4])?
**A.** 13.9 µM

**Q.** What about the “EC50 Pericard size Increase” value (Danio rerio embryo [5]) of the same compound?
**A.** 108 µM

**Q.** What about the “EC10 Pericard size Increase” value (Danio rerio embryo [6]) of the same compound?
**A.** 40.6 µM

**Q.** What about the “EC10 Body length Decrease” value (Danio rerio embryo [7]; exposure time: 2 dpf) of the same compound?
**A.** 70.3 µM

**Q.** And the “EC10 Body length Decrease” value (Danio rerio embryo [7]; exposure time: 4 dpf)?
**A.** 85 µM

**Q.** What about the “EC20 Body length Decrease” value (Danio rerio embryo [8]; exposure time: 2 dpf) of the same compound?
**A.** 82.7 µM

**Q.** What about the “EC20 Body length Decrease” value (Danio rerio embryo [8]; exposure time: 4 dpf) of the same compound?
**A.** 94.5 µM

**Q.** And the “EC20 Any effect” value (Danio rerio embryo [9]; exposure time: 2 dpf)?
**A.** 73.7 µM

**Q.** What about the “EC20 Any effect” value (Danio rerio embryo [9]; exposure time: 4 dpf) of the same compound?
**A.** 85.4 µM

**Q.** What about the “EC50 Body length Decrease” value (Danio rerio embryo [10]; exposure time: 2 dpf) of the same compound?
**A.** 109 µM

**Q.** And the “EC50 Body length Decrease” value (Danio rerio embryo [10]; exposure time: 4 dpf)?
**A.** 113 µM

**Q.** What about the “EC10 Any effect” value (Danio rerio embryo [11]; exposure time: 2 dpf) of the same compound?
**A.** 55.3 µM

**Q.** And the “EC10 Any effect” value (Danio rerio embryo [11]; exposure time: 4 dpf)?
**A.** 62.1 µM

**Q.** What about the “EC20 Heart rate” value (Danio rerio embryo [12]; exposure time: 2 dpf) of the same compound?
**A.** 113 µM

**Q.** What about the “EC20 Heart rate” value (Danio rerio embryo [12]; exposure time: 4 dpf) of the same compound?
**A.** 38.8 µM

**Q.** What about the “EC50 Heart rate” value (Danio rerio embryo [13]; exposure time: 2 dpf) of the same compound?
**A.** 181 µM

**Q.** And the “EC50 Heart rate” value (Danio rerio embryo [13]; exposure time: 4 dpf)?
**A.** 56.2 µM

**Q.** What about the “EC20 Eye size Decrease” value (Danio rerio embryo [14]) of the same compound?
**A.** 93.3 µM

**Q.** And the “EC20 LMR dark” value (Danio rerio embryo [15])?
**A.** 22.9 µM

**Q.** And the “EC20 Pericard size Increase” value (Danio rerio embryo [16])?
**A.** 58.3 µM

**Q.** What about the “EC20 Bladder size Decrease” value (Danio rerio embryo [17]) of the same compound?
**A.** 39 µM

**Q.** And the “EC10 Curvature Increase” value (Danio rerio embryo [18])?
**A.** 74.2 µM

**Q.** And the “EC50 LMR dark” value (Danio rerio embryo [19])?
**A.** 53.7 µM

**Q.** What about the “EC50 Bladder size Decrease” value (Danio rerio embryo [20]) of the same compound?
**A.** 56.3 µM

**Q.** What about the “EC10 Heart rate” value (Danio rerio embryo [21]; exposure time: 2 dpf) of the same compound?
**A.** 86.2 µM

**Q.** And the “EC10 Heart rate” value (Danio rerio embryo [21]; exposure time: 4 dpf)?
**A.** 31.2 µM

**Q.** And the “EC50 Eye size Decrease” value (Danio rerio embryo [22])?
**A.** 128 µM

**Q.** What about the “spontaneous tail coiling frequency” value (Danio rerio embryo [23]; 14.9 µM) of the same compound?
**A.** 2.83

**Q.** What about the “spontaneous tail coiling frequency” value (Danio rerio embryo [23]; 29.7 µM) of the same compound?
**A.** 2.54 ± 0.46

**Q.** What about the “spontaneous tail coiling frequency” value (Danio rerio embryo [23]; 59.4 µM) of the same compound?
**A.** 3.5

**Q.** And the “spontaneous tail coiling frequency” value (Danio rerio embryo [23]; 59.5 µM)?
**A.** 2.46

**Q.** And the “spontaneous tail coiling frequency” value (Danio rerio embryo [23]; 89.2 µM)?
**A.** 2.31

**Q.** What about the “spontaneous tail coiling frequency” value (Danio rerio embryo [23]; 104 µM) of the same compound?
**A.** 3 ± 0.71

**Q.** And the “spontaneous tail coiling frequency” value (Danio rerio embryo [23]; 133.8 µM)?
**A.** 3.06

**Q.** What about the “EC50 Curvature Increase” value (Danio rerio embryo [24]) of the same compound?
**A.** 109 µM

**Q.** And the “EC20 Pigmentation increase” value (Danio rerio embryo [25])?
**A.** 100 µM

**Q.** And the “EC20 Yolk sac size Increase” value (Danio rerio embryo [26])?
**A.** 68.9 µM

**Q.** And the “EC50 Lack of SB” value (Danio rerio embryo [27])?
**A.** 64.6 µM

**Q.** What about the “EC50 Any effect” value (Danio rerio embryo [28]; exposure time: 2 dpf) of the same compound?
**A.** 121 µM

**Q.** What about the “EC50 Any effect” value (Danio rerio embryo [28]; exposure time: 4 dpf) of the same compound?
**A.** 147 µM

**Q.** What about the “EC10 Eye size Decrease” value (Danio rerio embryo [29]) of the same compound?
**A.** 77.4 µM

**Q.** And the “EC20 Eye-jaw distance Decrease” value (Danio rerio embryo [30])?
**A.** 93.2 µM

**Q.** And the “EC10 Bladder size Decrease” value (Danio rerio embryo [31])?
**A.** 31.5 µM

**Q.** And the “EC50 Eye-jaw distance Decrease” value (Danio rerio embryo [32])?
**A.** 123 µM

**Q.** What about the “EC10 Lack of SB” value (Danio rerio embryo [33]) of the same compound?
**A.** 34.7 µM

**Q.** And the “EC10 Eye-jaw distance Decrease” value (Danio rerio embryo [34])?
**A.** 79.2 µM

**Q.** What about the “EC10 Yolk sac size Increase” value (Danio rerio embryo [35]) of the same compound?
**A.** 48.1 µM

**Q.** What about the “EC20 Lack of SB” value (Danio rerio embryo [36]) of the same compound?
**A.** 43.7 µM

**Q.** `COc1ccc(Cl)cc1C(=O)NCCc1ccc(S(=O)(=O)NC(=O)NC2CCCCC2)cc1` [Glibenclamide] was tested. Which “spontaneous tail coiling frequency” value (Danio rerio embryo [23]; 3.16 µM) did it give?
**A.** 1.79

**Q.** What about the “spontaneous tail coiling frequency” value (Danio rerio embryo [23]; 3.2 µM) of the same compound?
**A.** 0.98

**Q.** And the “spontaneous tail coiling frequency” value (Danio rerio embryo [23]; 6.3 µM)?
**A.** 1.48

**Q.** What about the “spontaneous tail coiling frequency” value (Danio rerio embryo [23]; 6.33 µM) of the same compound?
**A.** 1.79

**Q.** What about the “spontaneous tail coiling frequency” value (Danio rerio embryo [23]; 12.65 µM) of the same compound?
**A.** 0.8

**Q.** And the “spontaneous tail coiling frequency” value (Danio rerio embryo [23]; 12.7 µM)?
**A.** 1.41

**Q.** And the “spontaneous tail coiling frequency” value (Danio rerio embryo [23]; 25.3 µM)?
**A.** 1.69 ± 1.1

**Q.** And the “spontaneous tail coiling frequency” value (Danio rerio embryo [23]; 50.6 µM)?
**A.** 1.97

**Q.** And the “spontaneous tail coiling frequency” value (Danio rerio embryo [23]; 50.61 µM)?
**A.** 1.66
